Reference: US20220144838A1, “Compounds as Inhibitors of Macrophage Migration Inhibitory Factor” (NANJING IMMUNOPHAGE BIOTECH CO., LTD., priority 2019, published 2022)
Read-outs that look alike come from different tables or passages of the source.

Molecular target: T1, MIF (Homo sapiens, UniProt P14174)
T1 sequence (P14174 2-115 limits assumed): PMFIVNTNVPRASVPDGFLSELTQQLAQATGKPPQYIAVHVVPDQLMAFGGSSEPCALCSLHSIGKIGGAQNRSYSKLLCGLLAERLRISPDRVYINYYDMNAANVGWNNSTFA
Test: MIF tautomerase assay using pHPP as substrate
Assay type: biochemical
Conditions: mean of multiple test results
Description: Tautomerase Assay Using pHPP as Substrate
This assay measured MIF's tautomerase activity in a cell-free system and was based on the determination of initial rates of the MIF-catalyzed conversion of the ketonic into the enolic tautomer of pHPP. This was achieved by spectrophotometric quantification of the complex between borate and the product of the reaction (enolic pHPP). The substrate was prepared by conversion of the enolic pHPP into its ketonic form. To achieve this, 0.5 M pHPP in methanol was diluted 10-fold with 50 mM sodium acetate buffer at pH 6.0, and then the suspension was shaken for 24 h at room temperature in darkness, and finally stored at 4° C. for not more than 1 week, with 5 min sonication being recommended before use.
Assays were performed in small-volume clear-bottom black 96 or 384-well polystyrene plates (Greiner Bio-One). First, 2 μL of the enzyme solution containing 6 nM of MIF in DPBS, 0.025% w/v BSA, and 300 μM CHAPS was dispensed onto sample and negative control wells using Multidrop Combi with metallic tip cassettes (Thermo Fisher Scientific) previously treated with Sigmacote. Then, 2 μL of the same buffer without MIF was dispensed onto positive control wells. The reaction was started by addition of the following to all wells: 2 μL of substrate solution containing 3 mM ketonic pHPP in 200 mM boric acid, 25 mM sodium phosphate, 0.025% w/v BSA, and 300 μM CHAPS at pH 6.0. In order to remove bubbles, the plate was centrifuged in an Allegra 25R centrifuge (Beckman Coulter, Inc., Brea, Calif.) at 1000 rpm for 2 min at room temperature. Then, the plate was read in an EnVision. Final concentrations of enzyme and substrate were 3 nM and 1.5 mM, respectively. Initial rates were calculated for each well as the slope of the absorbance progress curve.
All exemplified compounds (Examples 1-230) were tested in the MIF tautomerase assay or a similar assay described above. The data mentioned below represents a mean pIC50 value of multiple test results. It is understood that the data illustrated below may have reasonable variation depending on the specific conditions and procedures used by the person conducting the testing.

[1] = inhibition of the MIF enzyme in vitro, read-out: Tautomerase Inhibition pIC50 (converted)
[2] = FIGS. 1-5, read-out: pIC50 MIF tautomerase activity (converted)

Row | Molecule | IC50 [1] | IC50 [2] | Tautomerase Inhibition pIC50 (inhibition of the MIF enzyme in vitro)
1 | Cc1nc(N2CCN(c3ccc(O)cc3)CC2)nc2c1ncn2-c1cc(N2CCN(c3ccc(O)cc3)CC2)cnn1 [Example 64, 4-(4-(6-(2-(4-(4-hydroxyphenyl)piperazin-1-yl)-6-methyl-9H-purin-9-yl)pyridazin-4-yl)piperazin-1-yl)phenol] | 1000 to 9770 nM |  | 
2 | O=C(Cn1cnc2c(-n3ncc4ccccc43)nc(N3CCN(c4ccc(O)cc4)CC3)nc21)NS(=O)(=O)C1CC1 [Example 55, N-(cyclopropylsulfonyl)-2-(2-(4-(4-hydroxyphenyl)piperazin-1-yl)-6-(1H-indazol-1-yl)-9H-purin-9-yl)acetamide] | 10 to 97.7 nM | ≤ 100 nM | 
3 | CC1CN(c2nc(N)c3ncn(-c4ccncc4)c3n2)CCN1c1ccc(O)cc1 (stereo not shown) [Example 186, 4-(4-(6-amino-9-(pyridin-4-yl)-9H-purin-2-yl)-2-methylpiperazin-1-yl)phenol] | 100 to 977 nM |  | 
4 | OC[C@H]1CCCN1c1nc(N2CCN(c3ccc(O)cc3)CC2)nc2c1ncn2-c1cccnc1 [Example 93, (R)-4-(4-(6-(2-(hydroxymethyl)pyrrolidin-1-yl)-9-(pyridin-3-yl)-9H-purin-2-yl)piperazin-1-yl)phenol] | 100 to 977 nM |  | 
5 | 4-(4-(7-(2-hydroxyethyl)-4-(indolin-1-yl)-7H-pyrrolo[2,3-d]pyrimidin-2-yl)piperazin-1-yl)phenol [Example 1] |  |  | B (B means 5.01 to 6)
6 | O=C(O)Cn1cnc2c(-n3ncc4c(C(=O)O)cccc43)nc(N3CCN(c4ccc(O)cc4)CC3)nc21 [Example 99, 1-(9-(carboxymethyl)-2-(4-(4-hydroxyphenyl)piperazin-1-yl)-9H-purin-6-yl)-1H-indazole-4-carboxylic acid] | 10 to 97.7 nM | ≤ 100 nM | 
7 | Nc1nc(N2CCN(c3ccc(O)cc3)CC2)nc2c1ncn2-c1cccc(-c2ccccc2)c1 [Example 78, 4-(4-(9-([1,1′-biphenyl]-3-yl)-6-amino-9H-purin-2-yl)piperazin-1-yl)phenol] | 1000 to 9770 nM |  | 
8 | CCS(=O)(=O)NC(=O)Cn1cnc2c(-n3ncc4ccccc43)nc(N3CCN(c4ccc(O)cc4)CC3)nc21 [Example 53, N-(ethylsulfonyl)-2-(2-(4-(4-hydroxyphenyl)piperazin-1-yl)-6-(1H-indazol-1-yl)-9H-purin-9-yl)acetamide] | 10 to 97.7 nM |  | 
9 | CC(CO)(CO)Nc1nc(N2CCN(c3ccc(O)cc3)CC2)nc2c1ncn2-c1ccncc1 [Example 177, 2-((2-(4-(4-hydroxyphenyl)piperazin-1-yl)-9-(pyridin-4-yl)-9H-purin-6-yl)amino)-2-methylpropane-1,3-diol] | 100 to 977 nM |  | 
10 | OCCNc1nc(N2CCN(c3ccc(O)cc3)CC2)nc2c1ncn2-c1cccnc1 [Example 112, 4-(4-(6-((2-hydroxyethyl)amino)-9-(pyridin-3-yl)-9H-purin-2-yl)piperazin-1-yl)phenol] | 100 to 977 nM |  | 
11 | CN(C)Cc1cccc2c1cnn2-c1nc(N2CCN(c3ccc(O)cc3)CC2)nc2c1ncn2CC(=O)O [Example 143, 2-(6-(4-((dimethylamino)methyl)-1H-indazol-1-yl)-2-(4-(4-hydroxyphenyl)piperazin-1-yl)-9H-purin-9-yl)acetic acid] | 100 to 977 nM |  | 
12 | CN(C)Cc1cccc2c1cnn2-c1nc(N2CCN(c3ccc(O)cn3)CC2)nc2c1ncn2CC(=O)O [Example 144, 2-(6-(4-((dimethylamino)methyl)-1H-indazol-1-yl)-2-(4-(5-hydroxypyridin-2-yl)piperazin-1-yl)-9H-purin-9-yl)acetic acid] | 100 to 977 nM |  | 
13 | O=C(O)Cn1cnc2c(-c3c[nH]c4ccccc34)nc(N3CCN(c4ccc(O)cc4)CC3)nc21 [Example 25, 2-(2-(4-(4-hydroxyphenyl)piperazin-1-yl)-6-(1H-indol-3-yl)-9H-purin-9-yl)acetic acid] | 1000 to 9770 nM |  | 
14 | Cc1nc(N2CCC(O)(c3ccc(O)cc3)CC2)nc2c1ncn2-c1ccc(C#N)cc1 [Example 185, 4-(2-(4-hydroxy-4-(4-hydroxyphenyl)piperidin-1-yl)-6-methyl-9H-purin-9-yl)benzonitrile] | > 10000 nM |  | 
